This is an account of results in article PMC7530112 (European journal of medicinal chemistry, 2020).

One data set has as its system HIV-1NL4-3. Briefly: Anti-HIV-1 assay in TZM-GFP cells. The following applies: for Inhibition% at 20 μM: 20 μM compound; for Inhibition% at 2 μM: 2 μM compound; for fold higher antiviral potency than PF74: EC50 compared with PF74.
Data set [1] is described as follows: Microsomal stability assay, mouse liver microsomes. The conditions noted are these: without Cobi, 1 μM compound, 0.5 mg/mL microsomal protein, NADPH.
Data set [2] can be described thus: Microsomal stability assay, human liver microsomes. The conditions noted are these: without Cobi; for Phase I metabolic stability t1/2, HLM: 1 μM compound, 0.5 mg/mL microsomal protein, NADPH.

Consider “2-(2-(2,4-Dioxo-1,3-diazaspiro[4.5]decan-3-yl)acetamido)-N-methyl-3-phenyl-N-(p-tolyl)propanamide [Compound 47]”, for which the “Inhibition% at 20 μM” value in the data set on HIV-1NL4-3 was “−/92%”. For the same substance, the “Phase I metabolic stability t1/2, MLM” value in data set [1] stood at 1.2 min. Also, the “Phase I metabolic stability t1/2, HLM” value in data set [2] amounted to 3.3 min. Consider “(S)-2-(2-(1,3-Dimethyl-2,6-dioxo-1,2,3,6-tetrahydro-7H-purin-7-yl)acetamido)-N-methyl-N,3-diphenylpropanamide [Compound 37]”, for which, in the data set on HIV-1NL4-3, the “Inhibition% at 2 μM” value is 10% and the “Inhibition% at 20 μM” value is recorded as 94%. For the same substance, in data set [1], the “Phase I metabolic stability t1/2, MLM” value was 1.2 min. In data set [2], the “fold improved half-life over PF74 in HLMs” value fell in the range of 7 to 10 fold and the “Phase I metabolic stability t1/2, HLM” value is 4.7 min.

Consider “N-(3-Bromophenyl)-2-(2-(2,4-dioxo-1,3-diazaspiro[4.5]decan-3-yl)acetamido)-N-methyl-3-phenylpropanamide [Compound 52]”, for which the “Inhibition% at 20 μM” value in the data set on HIV-1NL4-3 is on record as “−/36%”. Turning to “(S)-2-(2-(1,3-Dimethyl-2,6-dioxo-1,2,3,6-tetrahydro-7H-purin-7-yl)acetamido)-N-methyl-3-phenyl-N-(p-tolyl)propanamide [Compound 38]”, in the data set with HIV-1NL4-3, the “Inhibition% at 2 μM” value is 18% and the “Inhibition% at 20 μM” value is 98%. With “(S)-2-(2-(5-Hydroxy-1H-indol-3-yl)acetamido)-N-methyl-N,3-diphenylpropanamide [Compound 8]”, the “fold higher antiviral potency than PF74” value in the data set on HIV-1NL4-3 is given as “up to 20 fold”.

Consider “2-(2-(2,4-Dioxo-1,3-diazaspiro[4.5]decan-3-yl)acetamido)-N-ethyl-N,3-diphenylpropanamide [Compound 53]”, for which, in the data set with HIV-1NL4-3, the “Inhibition% at 20 μM” value is on record as “−/92%”.

As to “(S)-N-(3-Chlorophenyl)-2-(2-(1,3-dimethyl-2,6-dioxo-1,2,3,6-tetrahydro-7H-purin-7-yl)acetamido)-N-methyl-3-phenylpropanamide [Compound 42]”, in the data set on HIV-1NL4-3, the “Inhibition% at 2 μM” value worked out at 0% and the “Inhibition% at 20 μM” value was 71%. Consider “(2S)-2-(2-(4,7-Dimethyl-2-oxoindolin-3-yl)acetamido)-N-methyl-N,3-diphenylpropanamide [Compound 20]”, for which the “Phase I metabolic stability t1/2, MLM” value in data set [1] is recorded as 0.6 min. In addition, in data set [2], the “Phase I metabolic stability t1/2, HLM” value was determined as 1.5 min. “2-(2-(2,5-Dioxo-3’,4’-dihydro-2’H-spiro[imidazolidine-4,1’-naphthalen]-1-yl)acetamido)-N,3-diphenylpropanamide [Compound 55]”: the “Inhibition% at 20 μM” value in the data set on HIV-1NL4-3 is “−/22%”. Turning to “(2S)-N-(4-Chlorophenyl)-N-methyl-2-(2-(7-methyl-2-oxoindolin-3-yl)acetamido)-3-phenylpropanamide [Compound 17]”, in the data set with HIV-1NL4-3, the “Inhibition% at 2 μM” value is on record as 17% and the “Inhibition% at 20 μM” value is given as 96%. In the case of “(S)-N-(3-Fluorophenyl)-N-methyl-2-(2-(naphthalen-1-yl)acetamido)-3-phenylpropanamide [Compound 35]”, in the data set on HIV-1NL4-3, the “Inhibition% at 2 μM” value was found to be 44% and the “Inhibition% at 20 μM” value is 97%.

Regarding “N-(3-Chlorophenyl)-2-(2-(2,4-dioxo-1,3-diazaspiro[4.5]decan-3-yl)acetamido)-N-methyl-3-phenylpropanamide [Compound 51]”, in the data set with HIV-1NL4-3, the “Inhibition% at 2 μM” value is 9% and the “Inhibition% at 20 μM” value amounted to 98%.

Take “2-(2-(2,5-Dioxo-3’,4’-dihydro-2’H-spiro[imidazolidine-4,1’-naphthalen]-1-yl)acetamido)-N-(4-methoxyphenyl)-N-methyl-3-phenylpropanamide [Compound 56]”: in the data set with HIV-1NL4-3, the “Inhibition% at 20 μM” value is listed as “−/20%”. “(S)-N-(3-Chlorophenyl)-N-methyl-2-(2-(naphthalen-1-yl)acetamido)-3-phenylpropanamide [Compound 34]”: in the data set with HIV-1NL4-3, the “Inhibition% at 2 μM” value amounted to 53% and the “Inhibition% at 20 μM” value stood at 96%. Regarding “(2S)-N-(3-Fluorophenyl)-N-methyl-2-(2-(7-methyl-2-oxoindolin-3-yl)acetamido)-3-phenylpropanamide [Compound 19]”, in the data set with HIV-1NL4-3, the “Inhibition% at 2 μM” value is listed as 0% and the “Inhibition% at 20 μM” value amounted to 93%.

As for “(2S)-N-Methyl-2-(2-(7-methyl-2-oxoindolin-3-yl)acetamido)-N,3-diphenylpropanamide [Compound 16]”, in the data set on HIV-1NL4-3, the “Inhibition% at 2 μM” value was found to be 0% and the “Inhibition% at 20 μM” value was found to be 91%. For the same substance, in data set [1], the “Phase I metabolic stability t1/2, MLM” value stood at 1 min. In data set [2], the “fold improved half-life over PF74 in HLMs” value lay in the range of 7 to 10 fold and the “Phase I metabolic stability t1/2, HLM” value amounted to 7.0 min. “(S)-N-Methyl-2-(2-(naphthalen-1-yl)acetamido)-3-phenyl-N-(p-tolyl)propanamide [Compound 32]”: in the data set with HIV-1NL4-3, the “Inhibition% at 2 μM” value is given as 96% and the “Inhibition% at 20 μM” value was 100%. On to “2-(2-(2,5-Dioxo-3’,4’-dihydro-2’H-spiro[imidazolidine-4,1’-naphthalen]-1-yl)acetamido)-N-methyl-N,3-diphenylpropanamide [Compound 54]”, for which the “Inhibition% at 20 μM” value in the data set with HIV-1NL4-3 is reported as “−/32%”. As to “(S)-2-(2-(1,3-Dimethyl-2,6-dioxo-1,2,3,6-tetrahydro-7H-purin-7-yl)acetamido)-N-(3-fluorophenyl)-N-methyl-3-phenylpropanamide [Compound 40]”, in the data set on HIV-1NL4-3, the “Inhibition% at 2 μM” value was found to be 1% and the “Inhibition% at 20 μM” value was 67%. Take “2-(2-(2,4-Dioxo-1,3-diazaspiro[4.5]decan-3-yl)acetamido)-N,3-diphenylpropanamide [Compound 45]”: the “Inhibition% at 20 μM” value in the data set with HIV-1NL4-3 is “−/0%”. “(S)-N-Methyl-2-(2-(naphthalen-2-yl)acetamido)-3-phenyl-N-(p-tolyl)propanamide [Compound 26]”: in the data set on HIV-1NL4-3, the “Inhibition% at 2 μM” value was 80% and the “Inhibition% at 20 μM” value is recorded as 99%. Consider “(S)-N-(4-Chlorophenyl)-2-(2-(5-methoxy-1H-indol-3-yl)acetamido)-N-methyl-3-phenylpropanamide [Compound 7]”, for which the “Phase I metabolic stability t1/2, MLM” value in data set [1] was 0.6 min. For the same substance, the “Phase I metabolic stability t1/2, HLM” value in data set [2] is 1.8 min. With “(S)-N-Methyl-2-(2-(naphthalen-2-yl)acetamido)-N,3-diphenylpropanamide [Compound 25]”, in the data set on HIV-1NL4-3, the “Inhibition% at 2 μM” value was determined as 40% and the “Inhibition% at 20 μM” value came to 98%. For the same substance, the “Phase I metabolic stability t1/2, MLM” value in data set [1] stood at 0.5 min. Also, the “Phase I metabolic stability t1/2, HLM” value in data set [2] is given as 1.8 min. Take “(S)-2-(2-(5-Methoxy-1H-indol-3-yl)acetamido)-N-methyl-N,3-diphenylpropanamide [Compound 3]”: the “Phase I metabolic stability t1/2, MLM” value in data set [1] turned out to be 0.5 min. The “Phase I metabolic stability t1/2, HLM” value in data set [2] was 1.2 min. For the substance “(S)-N-(3-Chlorophenyl)-2-(2-(5-hydroxy-1H-indol-3-yl)acetamido)-N-methyl-3-phenylpropanamide [Compound 13]”, the “fold potency drop on moving the Cl from 4 position to 3” value in the data set on HIV-1NL4-3 (compared with 4-Cl analog 12) came out at 10 fold. For “(S)-2-(2-(1,3-Dimethyl-2,6-dioxo-1,2,3,6-tetrahydro-7H-purin-7-yl)acetamido)-N-ethyl-N,3-diphenylpropanamide [Compound 43]”, in the data set on HIV-1NL4-3, the “Inhibition% at 2 μM” value is on record as 0% and the “Inhibition% at 20 μM” value was 94%. Take “(S)-N-Ethyl-2-(2-(naphthalen-2-yl)acetamido)-N,3-diphenylpropanamide [Compound 30]”: in the data set on HIV-1NL4-3, the “Inhibition% at 2 μM” value stood at 46% and the “Inhibition% at 20 μM” value amounted to 97%. With “2-(2-(2,5-Dioxo-3’,4’-dihydro-2’H-spiro[imidazolidine-4,1’-naphthalen]-1-yl)acetamido)-N-methyl-3-phenyl-N-(p-tolyl)propanamide [Compound 57]”, in the data set with HIV-1NL4-3, the “Inhibition% at 20 μM” value is on record as “−/41%”. In the case of “(S)-2-(2-(5-Hydroxy-1H-indol-3-yl)acetamido)-N-methyl-3-phenyl-N-(p-tolyl)propanamide [Compound 9]”, the “fold higher antiviral potency than PF74” value with HIV-1NL4-3 is “up to 20 fold”. Take “(S)-N-(4-Chlorophenyl)-2-(2-(1,3-dimethyl-2,6-dioxo-1,2,3,6-tetrahydro-7H-purin-7-yl)acetamido)-N-methyl-3-phenylpropanamide [Compound 41]”: in the data set on HIV-1NL4-3, the “Inhibition% at 2 μM” value was 6% and the “Inhibition% at 20 μM” value was determined as 96%.

In the case of “(S)-N-Ethyl-2-(2-(naphthalen-1-yl)acetamido)-N,3-diphenylpropanamide [Compound 36]”, in the data set on HIV-1NL4-3, the “Inhibition% at 2 μM” value was found to be 53% and the “Inhibition% at 20 μM” value turned out to be 98%. As to “(S)-2-(2-(1,3-Dimethyl-2,6-dioxo-1,2,3,6-tetrahydro-7H-purin-7-yl)acetamido)-N-(4-fluorophenyl)-N-methyl-3-phenylpropanamide [Compound 39]”, in the data set on HIV-1NL4-3, the “Inhibition% at 2 μM” value was found to be 14% and the “Inhibition% at 20 μM” value worked out at 85%.

On to “(S)-N-(4-Chlorophenyl)-2-(2-(5-hydroxy-1H-indol-3-yl)acetamido)-N-methyl-3-phenylpropanamide [Compound 12]”, for which the “fold higher antiviral potency than PF74” value in the data set on HIV-1NL4-3 is listed as “up to 20 fold”. As to “(S)-N-(3-Fluorophenyl)-N-methyl-2-(2-(naphthalen-2-yl)acetamido)-3-phenylpropanamide [Compound 29]”, in the data set on HIV-1NL4-3, the “Inhibition% at 2 μM” value worked out at 0% and the “Inhibition% at 20 μM” value is reported as 97%. As to “(S)-N-(3-Chlorophenyl)-N-methyl-2-(2-(naphthalen-2-yl)acetamido)-3-phenylpropanamide [Compound 28]”, in the data set on HIV-1NL4-3, the “Inhibition% at 2 μM” value worked out at 0% and the “Inhibition% at 20 μM” value was 94%. For “2-(2-(2,4-Dioxo-1,3-diazaspiro[4.5]decan-3-yl)acetamido)-N-(3-fluorophenyl)-N-methyl-3-phenylpropanamide [Compound 49]”, in the data set on HIV-1NL4-3, the “Inhibition% at 2 μM” value amounted to 24% and the “Inhibition% at 20 μM” value is 98%.

As to “2-(2-(2,4-Dioxo-1,3-diazaspiro[4.5]decan-3-yl)acetamido)-N-methyl-N,3-diphenylpropanamide [Compound 44]”, in the data set on HIV-1NL4-3, the “Inhibition% at 20 μM” value is “−/89%”.
